Data published in ChEMBL document CHEMBL4627269, “New thiopyrimidine-benzenesulfonamide conjugates as selective carbonic anhydrase II inhibitors: synthesis, in vitro biological evaluation, and molecular docking studies” (Bioorg Med Chem, 2020).

How the values were obtained:
[1] = biological target: Carbonic anhydrase 1 (Homo sapiens, UniProt P00915); assay: Inhibition of human carbonic anhydrase 1 incubated for 15 mins prior to testing measured for 10 to 100 secs by phenol red dye based stopped-flow CO2 hydration assay
Carbonic anhydrase 1, sequence (P00915 whole entry): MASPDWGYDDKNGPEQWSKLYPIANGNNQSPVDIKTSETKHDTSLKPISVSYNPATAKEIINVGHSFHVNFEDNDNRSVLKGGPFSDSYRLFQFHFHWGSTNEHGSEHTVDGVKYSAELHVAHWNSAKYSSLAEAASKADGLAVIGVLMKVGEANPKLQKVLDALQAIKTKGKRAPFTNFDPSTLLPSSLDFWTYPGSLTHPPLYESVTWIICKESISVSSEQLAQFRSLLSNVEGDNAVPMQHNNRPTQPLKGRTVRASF

[2] = biological target: Carbonic anhydrase 9 (Homo sapiens, UniProt Q16790); assay: Inhibition of human carbonic anhydrase 9 incubated for 15 mins prior to testing measured for 10 to 100 secs by phenol red dye based stopped-flow CO2 hydration assay
[3] = biological target: T1, Carbonic anhydrase 2 (Homo sapiens, UniProt P00918); assay: Inhibition of recombinant human carbonic anhydrase 2 expressed in Escherichia coli BL21 (DE3) using 4-nitrophenyl acetate as substrate incubated for 10 mins prior to testing by spectrophotometric method
[4] = biological target: Carbonic anhydrase 12 (Homo sapiens, UniProt O43570); assay: Inhibition of human carbonic anhydrase 12 incubated for 15 mins prior to testing measured for 10 to 100 secs by phenol red dye based stopped-flow CO2 hydration assay
Carbonic anhydrase 12, sequence (O43570 whole entry): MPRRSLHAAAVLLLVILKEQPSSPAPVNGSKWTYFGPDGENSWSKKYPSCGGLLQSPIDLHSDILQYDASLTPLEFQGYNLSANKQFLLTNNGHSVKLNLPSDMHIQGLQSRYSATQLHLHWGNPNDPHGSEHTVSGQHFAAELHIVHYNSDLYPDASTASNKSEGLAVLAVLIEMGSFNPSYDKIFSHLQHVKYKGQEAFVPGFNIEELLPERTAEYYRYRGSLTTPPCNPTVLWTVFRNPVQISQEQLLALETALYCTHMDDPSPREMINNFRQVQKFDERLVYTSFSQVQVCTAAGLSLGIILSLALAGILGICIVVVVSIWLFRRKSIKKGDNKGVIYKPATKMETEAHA

[5] = biological target: T1, Carbonic anhydrase 2; assay: Inhibition of recombinant human carbonic anhydrase 2 incubated for 15 mins prior to testing measured for 10 to 100 secs by phenol red dye based stopped-flow CO2 hydration assay

SMILES | Ki [1] [µM] | Ki [2] [µM] | further results
Cc1cc(NS(=O)(=O)c2ccc(Nc3ccnc(SCC(=O)c4ccc(Cl)cc4)n3)cc2)no1 | > 100 | 8.94 | 
NS(=O)(=O)c1ccc(Nc2ccnc(SCC(=O)c3ccc(Br)cc3)n2)cc1 |  | > 100 | 
NS(=O)(=O)c1ccc(Nc2ccnc(SCC(=O)c3ccccc3)n2)cc1 |  | 0.16 | 
O=C(CSc1nccc(Nc2ccc(S(=O)(=O)Nc3ccccn3)cc2)n1)c1ccc(Cl)cc1 | > 100 | > 100 | 
NS(=O)(=O)c1ccc(Nc2ccnc(SCC(=O)c3ccc(-c4ccccc4)cc3)n2)cc1 | > 100 | 0.23 | 
O=C(CSc1nccc(Nc2ccc(S(=O)(=O)Nc3ccccn3)cc2)n1)c1ccccc1 | > 100 | > 100 | 
NS(=O)(=O)c1ccc(Nc2ccnc(NS(=O)(=O)c3cccc(C(F)(F)F)c3)n2)cc1 |  |  | Ki [3]: 0.001 µM
NS(=O)(=O)c1ccc(Nc2ccnc(SCC(=O)c3ccc(F)cc3)n2)cc1 |  | 0.82 | 
Cc1cc(NS(=O)(=O)c2ccc(Nc3ccnc(SCC(=O)c4ccc(F)cc4)n3)cc2)no1 | > 100 | 92.1 | Ki [4]: > 100 µM
NS(=O)(=O)c1ccc(Nc2ccnc(SCC(=O)c3ccc(C(F)(F)F)cc3)n2)cc1 |  | 39.2 | 
O=C(CSc1nccc(Nc2ccc(S(=O)(=O)Nc3cncs3)cc2)n1)c1ccc(C(F)(F)F)cc1 |  | > 100 | 
COc1ccc(C(=O)CSc2nccc(Nc3ccc(S(=O)(=O)Nc4ncccn4)cc3)n2)cc1 | > 100 | 2.51 | Ki [5]: > 100 µM
NS(=O)(=O)c1ccc(Nc2ccnc(NS(=O)(=O)c3cccnc3)n2)cc1 |  |  | Ki [3]: 0.004 µM
COc1ccc(C(=O)CSc2nccc(Nc3ccc(S(=O)(=O)Nc4ccccn4)cc3)n2)cc1 | > 100 | > 100 | Ki [5]: > 100 µM
CC(=O)NS(=O)(=O)c1ccc(Nc2ccnc(SCC(=O)c3ccc(Cl)cc3)n2)cc1 |  | > 100 | 
O=C(CSc1nccc(Nc2ccc(S(=O)(=O)Nc3cncs3)cc2)n1)c1ccc(Cl)cc1 |  | 0.55 | 
COc1ccc(C(=O)CSc2nccc(Nc3ccc(S(N)(=O)=O)cc3)n2)cc1 |  | 5.17 | 
COc1ccc(C(=O)CSc2nccc(Nc3ccc(S(=O)(=O)Nc4cc(C)on4)cc3)n2)cc1 |  | > 100 | 
O=C(CSc1nccc(Nc2ccc(S(=O)(=O)Nc3cncs3)cc2)n1)c1ccccc1 |  | > 100 | 
NS(=O)(=O)c1ccc(Nc2ccnc(SCC(=O)c3ccc(Cl)cc3)n2)cc1 |  | > 100 | 
